In patent US20060148712A1, “Monocyte chemoattractant activity of galectin-3” (priority 2000, published 2006):

Experiments:
CXCR-4 = target: T1, CXCR-4 (Homo sapiens, UniProt P61073); assay: Immunoprecipitation and immunoblotting with specific antibodies; type: binding
T1 construct: Chemokine receptors expressed on monocytes include CCR-1, CCR-2, CCR-5, and CXCR-4; endogenous in cells

[1] = system: cell recruitment into mouse air pouches; assay: Migration assay in vivo (mouse air pouch); design: species or system Balb/c mice
Protocol: The mouse air pouch experiments were performed according to a method described previously (Perretti, et al., J. Immunol. 151:4306-14 (1993)). Briefly, an air pouch was induced on the back of Balb/c mice by injecting 3 ml of air intradermally 2, 4, and 6 days before the experiments. Then, 1 ml of 0.9% sodium chloride (USP grade saline, Baxter Healthcare Corporation, Deerfield, Ill.) containing 1 μM galectin-3 was injected into the pouch. As positive and negative controls, 100 ng/ml of recombinant MCP-1 and diluent only, respectively, were injected. Four h afterwards, recruited cells were recovered by gently lavaging the pouch with 1 ml of PBS containing 1 mM EDTA. Cell number was determined and the distribution of leukocyte types was analyzed after cytospin preparation and Wright staining.

CCR-5 = target: T2, CCR-5 (Homo sapiens, UniProt P51681); assay: Immunoprecipitation and immunoblotting with specific antibodies; type: binding
T2 construct: Chemokine receptors expressed on monocytes include CCR-1, CCR-2, CCR-5, and CXCR-4; endogenous in cells
T2 sequence (P51681 whole entry): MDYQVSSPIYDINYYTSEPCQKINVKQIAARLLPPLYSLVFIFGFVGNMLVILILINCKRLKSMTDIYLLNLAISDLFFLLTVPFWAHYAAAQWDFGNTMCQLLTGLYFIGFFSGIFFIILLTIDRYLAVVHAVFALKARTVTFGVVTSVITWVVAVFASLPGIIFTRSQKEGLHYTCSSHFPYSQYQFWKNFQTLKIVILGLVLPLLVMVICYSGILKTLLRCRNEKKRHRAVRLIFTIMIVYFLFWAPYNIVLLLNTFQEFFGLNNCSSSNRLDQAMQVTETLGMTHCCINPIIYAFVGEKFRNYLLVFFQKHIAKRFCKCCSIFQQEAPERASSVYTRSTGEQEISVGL

lymphocytes = assay: Lymphocyte migration in vitro; type: cell-based
[2] = system: human alveolar macrophages; assay: Migration of human alveolar macrophages in vitro; type: cell-based; settings: two separate experiments; bell-shaped dose-response curves
Source text: Human macrophages were obtained by culturing peripheral blood monocytes in vitro for 7 days as previously described (Fantuzzi, et al., Blood 94:875-83 (1999)). Human alveolar macrophages were obtained from bronchoalveolar lavage (BAL) fluid according to a previously described protocol (Sugimoto et al, Am. Rev. Respir. Dis. 139:1329-35 (1989)). The purity of the macrophages was over 90% and the viability was over 99%.
(§1) Monocyte migration was examined by using 96-well micro Boyden chambers with 5 μm-pore size filters (Neuro Probe, Inc., Gaithersburg, Md.) as described previously (Falk, et al., J. Immunol. Meth. 33:239-47 (1980)), Chertov, et al., J. Biol. Chem. 271:2935-40 (1996)). Briefly, after the indicated concentrations of galectin-3 in RPMI 1640 were applied to the lower chambers, purified monocyte suspensions (2.5-5.0×10^4/well) were applied to the upper chambers. After incubation of the chambers for 1 h in a humidified incubator at 5% CO2 and 37° C., the filters were washed once with PBS and processed with Wright stain. The number of monocytes on the bottom side of the filters was counted in 5 to 10 high-power fields. Monocyte migration was calculated from the average numbers of the counted cells and expressed as % of input cells in a well.

CCR-2 = target: T3, CCR-2 (Homo sapiens, UniProt P41597); assay: Immunoprecipitation and immunoblotting with specific antibodies; type: binding
T3 construct: Chemokine receptors expressed on monocytes include CCR-1, CCR-2, CCR-5, and CXCR-4; endogenous in cells
T3 sequence (P41597 whole entry): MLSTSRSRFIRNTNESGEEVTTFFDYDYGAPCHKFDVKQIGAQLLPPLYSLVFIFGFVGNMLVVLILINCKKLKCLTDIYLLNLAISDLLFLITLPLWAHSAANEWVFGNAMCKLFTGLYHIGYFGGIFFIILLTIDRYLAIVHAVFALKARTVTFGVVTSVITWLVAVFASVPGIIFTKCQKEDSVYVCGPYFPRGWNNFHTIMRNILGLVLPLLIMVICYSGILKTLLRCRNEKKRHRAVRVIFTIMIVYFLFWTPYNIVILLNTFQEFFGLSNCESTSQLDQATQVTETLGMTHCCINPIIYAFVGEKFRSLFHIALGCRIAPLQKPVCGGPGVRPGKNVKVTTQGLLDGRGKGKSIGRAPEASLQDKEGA

CCR-1 = target: T4, CCR-1 (Homo sapiens, UniProt P32246); assay: as above; type: binding
T4 construct: Chemokine receptors expressed on monocytes include CCR-1, CCR-2, CCR-5, and CXCR-4; endogenous in cells
T4 sequence (P32246 1-355): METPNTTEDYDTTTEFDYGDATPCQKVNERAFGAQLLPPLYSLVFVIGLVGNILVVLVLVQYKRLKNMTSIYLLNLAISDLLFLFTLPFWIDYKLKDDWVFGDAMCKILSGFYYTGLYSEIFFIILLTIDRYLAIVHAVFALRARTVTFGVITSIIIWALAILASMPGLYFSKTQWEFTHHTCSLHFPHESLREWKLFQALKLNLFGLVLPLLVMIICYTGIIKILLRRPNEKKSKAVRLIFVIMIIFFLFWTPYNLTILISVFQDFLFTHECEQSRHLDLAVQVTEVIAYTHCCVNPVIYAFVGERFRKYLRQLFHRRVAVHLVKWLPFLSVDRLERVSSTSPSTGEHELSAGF

eosinophils = assay: Eosinophil attraction in vitro (not shown); type: cell-based
[3] = system: human peripheral blood monocytes; assay: Monocyte migration assay in vitro (96-well micro Boyden chamber); type: cell-based
Source text: Human monocytes were purified from venous blood of normal volunteers essentially as described previously (Nakagawara, et al., J. Clin. Invest. 68:1243-53 (1981)). In brief, after erythrocytes were sedimented by addition of 6% dextran saline solution (I part to 5 parts heparinized blood), the leukocytes were collected, washed twice, and resuspended in Ca^2+ and Mg^2+-free HBSS containing 5% autologous serum. Mononuclear cells were acquired by centrifugation of the leukocyte suspension on Ficoll Paque at 1,500 rpm for 15 min. The cells were resuspended in RPMI 1640 containing 10% autologous serum and allowed to adhere to sterile tissue culture plates for 30 min in a humidified incubator at 5% CO2 and 37° C. After incubation, non-adherent cells were removed by washing the plates three times with PBS at 37° C. […] To detach and harvest the adhered monocytes, 1 mM EDTA-PBS containing 5% serum was added and the plates were incubated on ice for 30 min. The monocytes were washed twice with HBSS and resuspended in RPMI 1640 with 0.1% autologous serum for the migration assay. The viability of monocytes was determined by trypan blue exclusion and was more than 98%. In some experiments, monocytes were purified according to another method using a Percoll discontinuous gradient described previously (Chuluyan & Issekutz, J. Clin. Invest. 92:2768-77 (1993)).
as §1
In assays using inhibitory reagents, the purified monocytes were pretreated with or without the indicated concentrations of B2C10 (Liu, et al., Biochemistry 35:[…] (1996)) or anti-DNP IgG1 (Liu, et al., J. Immunol. 124:2728-31 (1980)) as an isotype-matched control mAb, galectin-3C, or PTX at 37° C. for 30 min. Then the cells were applied to the upper chambers in the presence of these inhibitors at the same concentrations used in the pretreatment. In the assays using lactose and sucrose, the sugars were added to the lower chambers at the initiation of the migration assay.

[4] = 1 μM galectin-3, 1 ml into pouch, 4 h, p<0.05, n=4

T1 sequence (P61073 whole entry): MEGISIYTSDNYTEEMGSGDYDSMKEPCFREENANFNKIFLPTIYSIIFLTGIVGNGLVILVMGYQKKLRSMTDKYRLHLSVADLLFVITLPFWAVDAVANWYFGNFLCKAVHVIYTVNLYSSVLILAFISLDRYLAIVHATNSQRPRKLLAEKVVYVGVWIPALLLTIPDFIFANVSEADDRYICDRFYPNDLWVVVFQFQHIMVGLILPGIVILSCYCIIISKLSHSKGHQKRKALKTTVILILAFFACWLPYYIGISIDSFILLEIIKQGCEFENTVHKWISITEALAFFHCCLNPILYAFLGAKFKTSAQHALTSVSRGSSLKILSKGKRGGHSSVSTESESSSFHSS

With “galectin-3: Recombinant human galectin-3, a 26 kDa beta-galactoside-binding protein (lectin)” the “Interaction with chemokine receptor” value (CXCR-4) was “Neither have interactions between galectin-3 and these four chemokine receptors been detected”, the “Increase in number of monocytes in the air pouch over vehicle (saline)” value [1, 4] was 11.6 times and the “Increase in number of neutrophils in the air pouch over vehicle (saline)” value [1, 4] was 8.21 times. The “Number of eosinophils in the air pouch” value ([1]; 1 μM galectin-3, 4 h, p=0.112) was “not augmented significantly”, the “Number of lymphocytes in the air pouch” value ([1]; 1 μM galectin-3, 4 h, p=0.309) was “not augmented significantly” and the “Interaction with chemokine receptor” value (CCR-5) was “Neither have interactions between galectin-3 and these four chemokine receptors been detected”. For the same substance, the “Migration of lymphocytes in vitro” value (lymphocytes) was “does not induce migration of lymphocytes”, the “Migration of human alveolar macrophages” value [2] was “migrated towards galectin-3” and the “Interaction with chemokine receptor” value (CCR-2) was “Neither have interactions between galectin-3 and these four chemokine receptors been detected”. For the same substance, the “Interaction with chemokine receptor” value (CCR-1) was “Neither have interactions between galectin-3 and these four chemokine receptors been detected”, the “Attraction of eosinophils in vitro” value (eosinophils) was “does not attract eosinophils” and the “Monocyte migration (% of input cells)” value ([3]; 10 nM galectin-3, subsequent experiments n=21, control 4.26±1.3%, p<0.001) was 7.01±2.1%. The “Monocyte migration (% of input cells)” value ([3]; 100 nM galectin-3 in lower chamber, n=4 experiments, diluent control 3.54±2.2%) was 6.25±1.3%, the “Monocyte migration (% of input cells)” value ([3]; 300 nM galectin-3 in lower chamber, n=4 experiments, diluent control 3.54±2.2%) was 9.8±0.33% and the “Monocyte migration with galectin-3 in both chambers” value ([3]; 1 μM galectin-3 added to both chambers) was “no significant increase in monocyte migration over the background”. The “Monocyte migration (% of input cells)” value ([3]; 1 μM galectin-3 in lower chamber, n=4 experiments, diluent control 3.54±2.2%) was 12.4±1.2%, the “Effect on monocyte migration compared with MCP-1” value ([3]; 1 μM galectin-3 vs MCP-1 at 100 ng/ml (11.6 nM)) was “comparable to that of human recombinant MCP-1” and the “Monocyte migration (% migrated cells of the total cells)” value ([3]; checkerboard: galectin-3 above 0 nM, below 10 nM) was 8.66 ± 0.22%. For the same substance, the “Monocyte migration (% migrated cells of the total cells)” value ([3]; checkerboard: galectin-3 above 0 nM, below 100 nM) was 9.96 ± 0.72%, the “Monocyte migration (% migrated cells of the total cells)” value ([3]; checkerboard: galectin-3 above 0 nM, below 1000 nM) was 13.1 ± 1.33% and the “Monocyte migration (% migrated cells of the total cells)” value ([3]; checkerboard: galectin-3 above 10 nM, below 0 nM) was 7.55 ± 0.79%. The “Monocyte migration (% migrated cells of the total cells)” value ([3]; checkerboard: galectin-3 above 10 nM, below 10 nM) was 8.88 ± 1.09%, the “Monocyte migration (% migrated cells of the total cells)” value ([3]; checkerboard: galectin-3 above 10 nM, below 100 nM) was 9.23 ± 2.23% and the “Monocyte migration (% migrated cells of the total cells)” value ([3]; checkerboard: galectin-3 above 10 nM, below 1000 nM) was 11.5 ± 3.49%. The “Monocyte migration (% migrated cells of the total cells)” value ([3]; checkerboard: galectin-3 above 100 nM, below 0 nM) was 10.7 ± 0.86%, the “Monocyte migration (% migrated cells of the total cells)” value ([3]; checkerboard: galectin-3 above 100 nM, below 10 nM) was 11.4 ± 2.11% and the “Monocyte migration (% migrated cells of the total cells)” value ([3]; checkerboard: galectin-3 above 100 nM, below 100 nM) was 10.5 ± 2.10%. For the same substance, the “Monocyte migration (% migrated cells of the total cells)” value ([3]; checkerboard: galectin-3 above 100 nM, below 1000 nM) was 12.5 ± 2.87%, the “Monocyte migration (% migrated cells of the total cells)” value ([3]; checkerboard: galectin-3 above 1000 nM, below 0 nM) was 3.30 ± 2.82% and the “Monocyte migration (% migrated cells of the total cells)” value ([3]; checkerboard: galectin-3 above 1000 nM, below 10 nM) was 3.25 ± 3.11%. The “Monocyte migration (% migrated cells of the total cells)” value ([3]; checkerboard: galectin-3 above 1000 nM, below 100 nM) was 4.55 ± 3.69%, the “Monocyte migration (% migrated cells of the total cells)” value ([3]; checkerboard: galectin-3 above 1000 nM, below 1000 nM) was 3.50 ± 2.41% and the “Nature of the effect on monocytes in vitro” value ([3]; high concentrations (1 μM)) was “chemotactic”. For the same substance, the “Nature of the effect on monocytes in vitro” value ([3]; low concentrations (10 and 100 nM)) was “chemokinetic”.
